{"source": "patent US20250090498A1", "about": "“TREATMENT OF PRIMARY CTLA-4 CHECKPOINT RELATED IMMUNODEFICIENCIES” (ADIENNE PHARMA & BIOTECH SA, priority 2023, published 2025)", "key": {"[1]": {"assay": "single-dose pharmacokinetic study in healthy C57BL/6 mice, tissues and serum by mass spectrometry", "quoted_text": "(§1) A single-dose pharmacokinetic (PK) study was performed on healthy C57BL/6 mice to compare 1ME3CA and 3-IAld at 0.36 mg/topo dose. Untreated naïve mice were used as the control. […] Blood, obtained by cardiac puncture and collected into EDTA-containing tubes, and organs (brain, lung, intestine, liver and kidney) were assessed. All samples were stored at −80° C. until use. To evaluate 1ME3CA and 3-IAld for functional activity, the expression of AhR-downstream genes were concomitantly evaluated in these mice."}, "AhR": {"target": "T1, AhR (Homo sapiens, UniProt P35869)", "T1 sequence (P35869 11-848)": "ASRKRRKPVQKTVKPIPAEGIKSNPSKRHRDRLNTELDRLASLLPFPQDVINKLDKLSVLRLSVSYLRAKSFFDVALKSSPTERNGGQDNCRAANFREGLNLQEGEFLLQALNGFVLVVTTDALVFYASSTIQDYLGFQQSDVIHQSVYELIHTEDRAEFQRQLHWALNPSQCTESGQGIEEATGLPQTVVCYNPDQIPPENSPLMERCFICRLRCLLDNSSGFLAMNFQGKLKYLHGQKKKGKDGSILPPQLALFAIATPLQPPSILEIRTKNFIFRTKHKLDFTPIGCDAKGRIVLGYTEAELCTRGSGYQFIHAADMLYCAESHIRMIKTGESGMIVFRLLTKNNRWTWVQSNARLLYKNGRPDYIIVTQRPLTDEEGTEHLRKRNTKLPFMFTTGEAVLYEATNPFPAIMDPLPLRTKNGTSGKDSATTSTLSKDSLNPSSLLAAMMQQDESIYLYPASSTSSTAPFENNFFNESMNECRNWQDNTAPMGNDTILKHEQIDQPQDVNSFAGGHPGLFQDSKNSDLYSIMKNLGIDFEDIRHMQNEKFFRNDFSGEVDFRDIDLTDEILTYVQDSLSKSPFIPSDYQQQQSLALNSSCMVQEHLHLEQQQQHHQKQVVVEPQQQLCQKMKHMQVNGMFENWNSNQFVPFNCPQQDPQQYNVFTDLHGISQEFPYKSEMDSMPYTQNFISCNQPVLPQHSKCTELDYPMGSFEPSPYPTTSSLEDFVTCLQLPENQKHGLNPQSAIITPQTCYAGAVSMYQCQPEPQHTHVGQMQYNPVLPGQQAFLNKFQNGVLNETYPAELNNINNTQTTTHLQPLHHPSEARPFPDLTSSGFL", "assay": "AhR target gene expression by RT-PCR in A549, Calu-3, CaCo-2 and HepG32 cell lines", "type": "cell-based", "set-up": "endogenous in cells; host or cells: HepG2, A549, Calu-3, CaCo-2", "settings": "for AhR activity at the higher 1000 M concentration: increased in CaCo-2 and HepG32 but not on Calu-3 cells", "method": "ITE and FICZ are reference AhR agonists. Assays were performed at 4 hours post-incubation.\nTo further characterize the AhR agonistic potential of 1ME3CA, the ability of 3-IAld and 1ME3CA to activate target genes downstream AhR (Cyp1a1, Cyp2a1 and AhRR) in the A549 cell line derived from adenocarcinomic human alveolar basal epithelial cells, in the Calu-3 cell line derived from adenocarcinomic human bronchial epithelial cells, in the CaCo-2 cell line derived from human colon carcinoma and in the […] human liver cancer cell line was comparatively assessed. Cells were exposed to 1, 10, 100 and 1000 µM of either molecules or DMSO for 4 hours or overnight (on) at 37° C. before being assessed for the expression of the above-mentioned genes by RT-PCR."}, "[2]": {"assay": "preliminary pharmacokinetics in serum after Eudragit-formulated 3-IAld (90% 3-IAld/10% 13C8-labeled 3-IAld), mass spectrometry", "type": "in vivo", "method": "Primary pharmacodynamics studies have been performed. The mode of action of 3-IAld occurs upon binding to AhR, both in vitro and in vivo. In vitro, 3-IAld induced luciferase activity in the H1L1.1c2 cell line containing a stably-transfected AhR-responsive firefly luciferase at the dose range […] (Zelante et al, 2013). […] Preliminary pharmacokinetics data have been obtained by administration of Eudragit-formulated 3-IAld in the composition 90% 3-IAld/10% 13C8-labeled 3-IAld and targeted/untargeted analysis by mass spectrometry in serum at different times (30 minutes (min), 1 hour (h), 2 h, 4.5h, 6 h, 24h). […] The presence of indole-3-formic acid was also confirmed with labelled 3-IAld (FIG. 13E), showing a similar kinetics and a peak level of about 25 μM at 30 min."}, "in vivo": {"assay": "in vivo", "settings": "C57BL/6, mouse, 18 mg/kg", "quoted_text": "as §1"}, "[3]": {"assay": "toxicology, up to 3 weeks, PAS tissue pathology in C57BL/6 mice", "type": "in vivo", "settings": "0.36-0.18-0.09 mg/mouse intragastrically, enteric microparticles", "method": "For assess toxicology, C57BL/6 mice received intragastrically escalating doses of 0.36-0.18-0.09 mg/mouse of 3-IAld or 1ME3CA formulated in enteric microparticles for up to 3 weeks as shown in Table 3 below. At the end of treatment, mice were sacrificed, and tissue pathology blindly examined on different organs after PAS staining of different section from each organ. Sections of organs from 4 mice in each group were separately evaluated."}}}
{"smiles": "Cn1cc(C(=O)O)c2ccccc21", "note": "[1-methylindole-3-carboxylic acid, 1-Methyl-1H-indole-3-carboxylic acid]", "values": [{"measurement": "detectability at 6 hours in serum, lung, and kidneys", "setting": "[1]; after enteric 1ME3CA 18 mg/Kg", "value": "undetectable"}, {"measurement": "Cmax values", "setting": "[1]; after enteric 1ME3CA 18 mg/Kg, all organs and serum", "value": "very similar"}, {"measurement": "levels 24 hours after the administration in intestine, liver and brain", "setting": "[1]; after enteric 1ME3CA 18 mg/Kg, versus control", "value": "still higher than control"}, {"measurement": "systemic levels versus those after oral 3-IAld", "setting": "[1]; after oral 1ME3CA", "value": "more sustained and, as expected, significantly higher"}, {"measurement": "clearance of metabolites from the organs", "setting": "[1]; after oral 3-IAld 18 mg/Kg", "value": "rapid clearance"}, {"measurement": "concentrations in the intestine, serum, and kidney", "setting": "[1]; after oral 3-IAld 18 mg/Kg", "value": "basal"}, {"measurement": "level 24 hours after administration of 3-IAld", "setting": "[1]; mice administered with 3-IAld", "value": "had disappeared"}, {"measurement": "AhR agonistic activity versus 3-IAld (overall)", "setting": "AhR", "value": "comparable, if not superior"}, {"measurement": "expression of the IDO1 and IDO2 genes", "setting": "AhR", "value": "No activity was observed"}, {"measurement": "expression of AhR-dependent Cyp1a1, Cyp2a1 and AhRR genes", "setting": "AhR; cell lines tested, 4 hours or overnight", "value": "promoted the expression"}, {"measurement": "AhR activity at the higher 1000 M concentration", "setting": "AhR", "value": "inconsistent results"}, {"measurement": "extent of gene expression versus reference AhR ligands ITE or FICZ and 3-IAld", "setting": "AhR; similar concentration, i.e. 100 μM", "value": "comparable, or even superior"}, {"measurement": "time of peak levels as metabolite of 3-IAld", "setting": "[2]; same kinetics as indole-3-formic acid", "value": 30, "unit": "min"}, {"measurement": "Tmax", "setting": "in vivo; in vivo", "value": 0.5, "unit": "h"}, {"measurement": "tissue pathology in different organs (PAS)", "setting": "[3]", "value": "absence of visible tissue pathology"}]}
{"smiles": "O=Cc1c[nH]c2ccccc12", "note": "[3-IAld, 1H-indole-3-carbaldehyde]", "values": [{"measurement": "concentrations in all organs", "setting": "[1]; after enteric 1ME3CA 18 mg/Kg", "value": "basal"}, {"measurement": "disappearance of 3-IAld from tissues", "setting": "[1]; single oral 18 mg/Kg 3-IAld, enteric microparticles, after 2 hours, most tissues", "value": "rapidly disappeared"}, {"measurement": "expression of the IDO1 and IDO2 genes", "setting": "AhR", "value": "No activity was observed"}, {"measurement": "AhR activity at the higher 1000 M concentration", "setting": "AhR", "value": "inconsistent results"}, {"measurement": "labelled 3-IAld serum level at 2 h", "setting": "[2]; in vivo", "value": "sharply reduced levels"}, {"measurement": "metabolic conversion", "setting": "[2]; in vivo", "value": "rapid metabolic conversion"}, {"measurement": "time of peak of labelled 3-IAld in serum", "setting": "[2]; in vivo", "value": "30 to 60", "unit": "min"}, {"measurement": "half-life", "setting": "in vivo; po", "value": "3 to 5", "unit": "h"}, {"measurement": "tissue pathology in different organs (PAS)", "setting": "[3]", "value": "absence of visible tissue pathology"}]}
